Paper PMC12040169 (PLOS Biology, 2025)

assay: in vitro; conditions: human, hela cells, % viability

In order of rising viability at 28.5 h, 10 µM:
1. CCc1nn(CC(=O)N2CCCCC2)c(=O)c2cc3occc3n12 [CBK283674]  77%
2. CN(C)CC(C)(C)CNC(=O)c1cc(-c2ccc(C(=O)N3CCOCC3)cc2)cnc1N [CBK158574]  80.2%
3. COc1cc(C(=O)NCC(=O)O)cc(Cl)c1OCC(C)C [CBK297485]  80.8%
4. O=C(NCC1(N2CCOCC2)CCCCC1)c1ccccc1C(=O)c1ccc(F)cc1 [CBK297938]  81%
5. CCOc1cccc(CNn2cnnc2)c1OCc1ccccc1 [CBK265824]  81.2%
6. CC(C)CC(=O)N[C@@H](C)Cn1nc(-c2cccs2)oc1=O [CBK284336]  82.4%
7. COc1ccc(NS(=O)(=O)c2cc(C(=O)O)cc(C)c2C)cc1OC [CBK295148]  82.9%
8. COc1ccc(C2=CC(c3ccc(Cl)cc3)N3N=CNC3=N2)cc1OC (stereo not drawn) [CBK287966]  84.3%
9. Cn1cncc1CN(CCCn1ccnc1)Cc1ccccc1Cl [CBK283041]  84.8%
10. O=S(=O)(Cc1ccccc1)Nc1nnc(C(F)(F)F)s1 [CBK045539]  84.8%
11. CC(NC(=O)c1cc(C(F)(F)F)[nH]n1)c1ccccn1 (stereo not drawn) [CBK281712]  84.8%
12. COc1ccc(C2=C3NN=C(N)N3NN2)cc1 [CBK093662]  84.8%
13. CC1CCc2c(sc(NC(=O)c3ccno3)c2C(N)=O)C1 (stereo not drawn) [CBK287752]  85.4%
14. Cc1ccc(C(=O)C(NC(=O)c2ccco2)Nc2cccc3ccccc23)cc1 (stereo not drawn) [CBK263856]  86.3%
15. CC(Nc1cc(Cl)c(C(F)(F)F)cc1[N+](=O)[O-])c1ccc2[nH]c(=O)[nH]c2c1 (stereo not drawn) [CBK297721]  86.7%
16. CCNS(=O)(=O)c1ccc2c(c1)N(Cc1n[nH]c(CC)n1)CC2 [CBK306434]  86.9%
17. CN(CC(=O)N1CCN(Cc2ccc3c(c2)OCO3)CC1)S(=O)(=O)c1ccccc1 [CBK265791]  87%
18. CCn1c(SCC(=O)Nc2ccc([N+](=O)[O-])cc2O)nnc1-c1ccccc1 [CBK268730]  87.2%
19. CC1OCN(c2ccc(C(C)(C)C)cc2)Cn2c1nc1ccccc12 (stereo not drawn) [CBK018706]  88%
20. C[C@H]1CNCCN1c1nccnc1Cl [CBK047524F]  88%
21. CCCc1nc(NC(c2cccc(C)n2)C2CC2)c2cnn(C)c2n1 (stereo not drawn) [CBK306795]  88%
22. O=C1CN(C(=O)NCc2ccc(F)cc2)CCN1 [CBK155869]  88.2%
23. CCCCSc1nc(N)cc(N2CCC(C(=O)NCC)C2)n1 (stereo not drawn) [CBK306880]  88.2%
24. O=C(Nc1ccc2oc(-c3cccnc3)nc2c1)c1ccc(-c2ccccc2)cc1 [CBK264035]  88.3%
25. c1cncc(COc2cncc(N3CCCC3)n2)c1 [CBK115892]  88.4%
26. COc1ccc2ncc3c(c2c1)NCCNC3=O [CBK291168]  88.4%
27. COC(=O)c1c(NC(=S)NCc2ccc(S(N)(=O)=O)cc2)sc2c1CCC2 [CBK266926]  88.5%
28. COc1cccc(CNC(C(=O)O)c2ccc3c(c2)OCO3)c1 (stereo not drawn) [CBK015420D]  89.1%
29. CCC1CCCCN1S(=O)(=O)c1ccc(NC(=O)Cn2c(=O)oc3ccccc32)cc1 (stereo not drawn) [CBK268069]  89.2%
30. COc1ccc([N+](=O)[O-])cc1CSc1nnc(-c2ccco2)n1C [CBK269671]  89.3%
31. CN(C)C(=O)[C@H]1CN2CCC1C[C@@H]2Cn1cc(CCO)nn1 (stereo partly drawn) [CBK289089]  89.9%
32. Cc1c(CN2CCCC(n3cnc4cc(F)ccc43)C2)cnn1C (stereo not drawn) [CBK284478]  89.9%
33. OC1(c2cccnc2F)CCN(Cc2ccc(F)c(F)c2)CC1 [CBK284370]  90%
34. COc1ccc(CN2CCN(c3ccccn3)CC2)cc1O [CBK261570]  90.5%
35. COCc1cn([C@H]2CO[C@H]3[C@@H]2OC[C@H]3OC(=O)Nc2ccc(C)cc2)nn1 [CBK289489]  90.6%
36. CCc1nnc(NC(=O)COC(=O)CSc2nc(C)cc(C)n2)s1 [CBK018792]  90.9%
37. FC(F)(F)c1cccc(CSc2cc(N3CCCC3)ncn2)c1 [CBK107184]  91.1%
38. CNC(=O)c1sc2ccccc2c1C1CN(Cc2cn(C)c3cc(OC)ccc23)CCO1 (stereo not drawn) [CBK286087]  91.9%
39. COc1cccc(CCN2CCC(C(=O)NC(c3ccc(F)cc3)c3nc(OC)cc(OC)n3)CC2)c1 (stereo not drawn) [CBK148089]  92.2%
40. CC(C)Cc1cc(CNC(=O)C(C)n2cc(Cl)cn2)on1 (stereo not drawn) [CBK281524]  92.8%
41. O=C(NC1CCN(c2nc3cccnc3s2)CC1)c1ccsc1 [CBK304342]  93%
42. Nc1nc(C2CC(O)C2)cc(N2CCC(Oc3ccccc3Cl)CC2)n1 (stereo not drawn) [CBK307392]  93.2%
43. c1ccc2c(c1)nc(-c1cscn1)n2CCCCc1nnn[nH]1 [CBK267110]  93.7%
44. COc1ccc2cc(C(=O)NCCn3ccnc3C)n(C)c2c1 [CBK282544]  94.1%
45. Cn1nnc2cc(NC(=O)NCc3csc(N4CCOCC4)n3)ccc21 [CBK307492]  94.2%
46. NC(=O)[C@H]1C[C@@H](O)[C@H](O)[C@H]2[C@@H]1S/C(=N\c1ccc(Cl)cc1)N2Cc1ccccc1 [CBK288940]  94.9%
47. Cn1cc(-c2cncn2CCCOc2ccc(Cl)cc2)cn1 [CBK281784]  95.2%
48. O=C1NCCCC12CCN(Cc1ccccc1N1CCCCC1)CC2 [CBK284878]  95.5%
49. CCOC(=O)C1CCCN(Cc2nnsc2Cl)C1 (stereo not drawn) [CBK304848]  95.7%
50. Cc1ccc(NS(=O)(=O)c2ccc(OC(F)(F)F)cc2)nc1 [CBK043577]  95.8%
51. COc1ccc(OC(=O)c2cc(S(=O)(=O)N3CCCCCC3)ccc2Cl)cc1 [CBK264562]  95.9%
52. Cc1ccc2nc(-c3ccc(/N=C/c4cccc(O)c4O)cc3)sc2c1 [CBK261583]  96%
53. Cc1ncsc1CCOC(=O)N1C[C@@H](C)O[C@@H](C)C1 [CBK200418]  96.3%
54. COc1cccc(C(c2ccccn2)N(C)C(=O)C2CCN(S(=O)(=O)c3c(C)noc3C)CC2)c1 (stereo not drawn) [CBK060212]  96.4%
55. O=C(Nc1ccsc1C(=O)O)c1ccc(Cl)cc1 [CBK076902]  96.8%
56. CC1CCN(CC(O)c2ccc3c(c2)CCCN3C(=O)C2CC2)CC1 (stereo not drawn) [CBK282488]  96.9%
57. O=C(c1cccs1)N1CC(n2nc(-c3cccs3)ccc2=O)C1 [CBK283347]  97.3%
58. CC(C)CC(=O)NCCn1nc(-c2ccccc2F)cc1CN(C)C [CBK282005]  97.4%
59. C=CCN1CCC2(CC1)CN(C(C)=O)Cc1cc(C)ccc1O2 [CBK282693]  97.5%
60. COc1cc(Cl)cc(C2NC(=S)NC(c3ccccc3)=C2C(C)=O)c1OCC(=O)O (stereo not drawn) [CBK268801]  98.3%
61. CC(C)CCc1ccc(C#N)c(=O)[nH]1 [CBK016227]  98.8%
62. COc1cc(C)c(Nc2cc(-c3ccc4c(c3)OCO4)ncn2)cc1OC [CBK037711]  98.9%
63. CSc1nc2sc3c(c2c(=O)n1-c1ccccc1C)CC(C)(C)OC3 [CBK091875]  99.1%
64. CCOC(=O)c1cnc2c(C)c(Cl)ccc2c1NCCCN1CCOCC1 [CBK265296]  99.6%
65. COc1ccc(N2CCN(c3cncc(-c4cc(OC)c(OC)c(OC)c4)n3)CC2)cc1OC [CBK037988]  99.9%
66. COc1ccccc1-c1cccc(C2CCCN(C(=O)CCCc3ccccc3)C2)n1 (stereo not drawn) [CBK286217]  100%
67. O=S(=O)(Nc1cccc(-c2cnco2)c1)c1ccc(-c2cc(C(F)(F)F)on2)s1 [CBK067124]  100%
68. O=S(=O)(c1ccc(Cl)cc1)N1CCN(c2ccccc2)CC1 [CBK067987]  100%
69. Cn1ccnc1C(=O)N1C[C@H]2CCc3c(n[nH]c3C(F)(F)F)[C@H]2C1 [CBK283441]  101%
70. Cc1cc(COc2ncccc2C(F)(F)F)no1 [CBK115783]  101%
71. CC(CC(=O)O)CC(=O)NNc1ncc(Cl)cc1Cl (stereo not drawn) [CBK264398]  102%
72. O=C(O)c1[nH]c2ccccc2c1C(c1ccsc1)c1c(C(=O)O)[nH]c2ccccc12 [CBK267811]  103%
73. Nc1ncc(-c2cc(C(F)(F)F)cc(C(F)(F)F)c2)nc1N1CCN(CCO)CC1 [CBK063426]  103%
74. O=C1COC[C@H]([C@H](O)c2ccc(NC(=O)c3cnccn3)cc2)N1 [CBK289673]  104%
75. COc1cc(OC)nc(C(NC(=O)C2CCN(Cc3cccn3C)CC2)c2ccc(F)cc2)n1 (stereo not drawn) [CBK148170]  104%
76. Sc1nnc(COc2ccc(-c3ccccc3)cc2)n1-c1ccccc1 [CBK264964]  105%
77. O=C(Cc1cccs1)Nc1cccc(C(=O)Nc2cccc(C(=O)O)c2)c1 [CBK268509]  105%
78. O=C1COc2ccccc2C(=O)N[C@@H]2CCOC[C@@H]2C/C=C/C[C@H]2[C@H](CCCN2CCO)N1 [CBK292149]  106%
79. CCN(CC)c1ccc(CN(CCCN(C)C)C(=O)NCC2CCCCC2)cc1 [CBK159392]  106%
80. Cc1nccn1CCCn1cncc1-c1ccc2c(c1)CC(C)(C)O2 [CBK281809]  106%
81. CC(C(=O)O)N1C(=O)c2ccccc2C1c1c[nH]c2ccccc12 (stereo not drawn) [CBK286576]  106%
82. CCOC(=O)c1ccc(-c2ccc(/C=C/c3nn4cnnc4c(O)c3[N+](=O)[O-])o2)cc1 [CBK268409]  107%
83. Cc1cc(NS(=O)(=O)c2ccc(Cl)c(Cl)c2)n(C)n1 [CBK067254]  109%
84. COC(=O)[C@@H](C)NC(=O)[C@@H]1CN(C(=O)NC(C)C)CCN1C(=O)c1cccs1 [CBK289624]  110%
85. CCOCCCNC(=O)c1cnn2c(C)c(Cc3cccc(OC)c3)c(C)nc12 [CBK162056]  113%
86. O=C(O)C1C2C=CC3(CN(C/C=C/c4ccccc4)C(=O)C13)O2 (stereo not drawn) [CBK286946]  119%

same assay, conditions: human, hela cells, % viability, bulk resorufin, single well

Work on `COc1ccc(CCNC(=O)c2cccc(-c3ccc4c(c3)COC3(CCNCC3)O4)c2)cc1OC` [CBK110024] yielded a viability at 28.5 h, 10 µM of 116%.
